Reference: US20070065803A1, “Patterns for a skeletal system” (CENTRE NATIONAL DE LA RECHERCHE SCIENTIFIQUE, priority 2003, published 2007)

Tested on: osteoclasts derived from RAW-GFP deposited onto a layer of MC3T3-type osteoblast cells
Test: Crossing of the osteoblast layer by osteoclasts in the bone system model (confocal microscopy)
Assay type: cell-based, murine
Conditions: PP2 at 10 μM; untreated osteoclasts cross the layer after 1 hour to 1 hour 30 min; FIG. 4
Experimental: FIG. 4, images obtained by confocal microscopy 3D analysis, showing the organization of the two cell types according to the section along Z, in order to determine the effects of PP2 (FIG. 4B) in comparison with the control trial (FIG. 4A).
Cells of the murine osteoblast line MC 3T3 are placed in culture in α-MEM medium supplemented with 10% by volume of fetal calf serum, 10^−8M dexamethasone and 0.028 mM ascorbic acid. The cells are then detached and seeded at confluence onto the mineralized support.
The osteoclasts derived from human or murine primary cultures or from lines (for example, the RAW line or the human line GCT23) are obtained after 7 days of differentiation as described in Destaing et al. (Mol Biol Cell, Podosomes display actin turnover and dynamic self-organization in osteoclasts expressing actin-green fluorescent protein, 14(2):407-16, 2003). The osteoclast precursors are cultured in the presence of α-MEM medium supplemented with 10% by volume of fetal calf serum and of two recombinant cytokines: M-CSF and RANK-L ([…]). The cells are placed at 37° C. and 5% of CO2 and the medium is changed every two days for 7-8 days. The differentiated osteoclasts are detached with a solution of EDTA at 0.25 mM diluted in 1×PBS. The osteoclasts are seeded at a density of 10 cells/mm^2.
An inhibitor of the Src tyrosine kinase, PP2, was tested in the model according to the invention. […]

CC(C)(C)n1nc(-c2ccc(Cl)cc2)c2c(N)ncnc21 [PP2]
crossing (invasion) of the osteoblast cell layer by the osteoclasts: the osteoclasts no longer cross the osteoblast cell layer
